Experimental findings from ChEMBL document CHEMBL4616613, “Phosphine boranes as less hydrophobic building blocks than alkanes and silanes: Structure-property relationship and estrogen-receptor-modulating potency of 4-phosphinophenol derivatives” (Bioorg Med Chem, 2020) are described below.

Series [1] is described as follows: physchem. Conditions: 1-octanol/water; call rule not given here.
For series [2], the target named is T1, Estrogen receptor beta (Homo sapiens, UniProt Q92731). Conditions: hek293.
Description: (§1) Antagonist activity at human Gal4-fused ERbeta expressed in HEK293 cells assessed as inhibition of E2-induced transcriptional activation after 24 hrs by luciferase/beta-galactosidase reporter gene assay
For series [3], the target named is T2, Estrogen receptor (Homo sapiens, UniProt P03372).
T2 sequence (P03372 whole entry): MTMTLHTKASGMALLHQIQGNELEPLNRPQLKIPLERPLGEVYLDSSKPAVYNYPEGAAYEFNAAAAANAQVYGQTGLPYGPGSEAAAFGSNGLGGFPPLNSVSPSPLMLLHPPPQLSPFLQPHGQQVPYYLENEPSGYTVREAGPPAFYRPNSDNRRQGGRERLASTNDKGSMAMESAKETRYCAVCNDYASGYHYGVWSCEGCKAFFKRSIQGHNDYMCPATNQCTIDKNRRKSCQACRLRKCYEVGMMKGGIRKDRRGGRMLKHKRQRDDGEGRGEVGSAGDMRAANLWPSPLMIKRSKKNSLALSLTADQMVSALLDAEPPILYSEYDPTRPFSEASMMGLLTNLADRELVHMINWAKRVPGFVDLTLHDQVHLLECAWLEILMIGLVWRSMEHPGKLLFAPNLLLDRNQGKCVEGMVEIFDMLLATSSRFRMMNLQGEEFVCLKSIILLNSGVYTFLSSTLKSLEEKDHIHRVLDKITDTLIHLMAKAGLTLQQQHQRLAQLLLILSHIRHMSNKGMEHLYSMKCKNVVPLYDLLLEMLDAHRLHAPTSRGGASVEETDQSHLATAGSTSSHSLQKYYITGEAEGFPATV
Conditions: hek293.
Description: (§2) Antagonist activity at human Gal4-fused ERalpha expressed in HEK293 cells assessed as inhibition of E2-induced transcriptional activation after 24 hrs by luciferase/beta-galactosidase reporter gene assay

The nature of series [4]: physchem.
Description: Acid dissociation constant, pKa of the compound by UV spectral absorption analysis
Series [5] concerns the target T2, Estrogen receptor. Conditions: hek293. The source holds these as a separate data set.
Description: (§3) Agonist activity at human Gal4-fused ERalpha expressed in HEK293 cells assessed as transcriptional activation after 24 hrs by luciferase/beta-galactosidase reporter gene assay
In series [6] the target is T2, Estrogen receptor.
Description: as §3
Series [7] concerns the target T1, Estrogen receptor beta. The experiment in a line: Agonist activity at human Gal4-fused ERbeta expressed in HEK293 cells assessed as transcriptional activation at 30 uM after 24 hrs by luciferase/beta-galactosidase reporter gene assay relative to estradiol. The series is classed as cell-based.
For series [8], the target named is T1, Estrogen receptor beta.
Description: as §1
For series [9], the target named is T2, Estrogen receptor. This is another data set of the same source.
Description: as §2
The target in series [10] is T1, Estrogen receptor beta. The series can be described thus: Antagonist activity at human Gal4-fused ERbeta expressed in HEK293 cells assessed as inhibition of E2-induced transcriptional activation at 30 uM after 24 hrs by luciferase/beta-galactosidase reporter gene assay relative to control. The series is classed as cell-based.
Series [11] deals with T3, Estrogen receptor (Homo sapiens) (UniProt P03372).
T3 sequence (whole entry): T2 sequence (P03372 whole entry)
The series can be described thus: Agonist activity at human Gal4-fused ERalpha expressed in HEK293 cells assessed as transcriptional activation at 30 uM after 24 hrs by luciferase/beta-galactosidase reporter gene assay relative to estradiol. Format: cell-based.

The structures appear in SMILES notation.

T1 sequence (Q92731 whole entry): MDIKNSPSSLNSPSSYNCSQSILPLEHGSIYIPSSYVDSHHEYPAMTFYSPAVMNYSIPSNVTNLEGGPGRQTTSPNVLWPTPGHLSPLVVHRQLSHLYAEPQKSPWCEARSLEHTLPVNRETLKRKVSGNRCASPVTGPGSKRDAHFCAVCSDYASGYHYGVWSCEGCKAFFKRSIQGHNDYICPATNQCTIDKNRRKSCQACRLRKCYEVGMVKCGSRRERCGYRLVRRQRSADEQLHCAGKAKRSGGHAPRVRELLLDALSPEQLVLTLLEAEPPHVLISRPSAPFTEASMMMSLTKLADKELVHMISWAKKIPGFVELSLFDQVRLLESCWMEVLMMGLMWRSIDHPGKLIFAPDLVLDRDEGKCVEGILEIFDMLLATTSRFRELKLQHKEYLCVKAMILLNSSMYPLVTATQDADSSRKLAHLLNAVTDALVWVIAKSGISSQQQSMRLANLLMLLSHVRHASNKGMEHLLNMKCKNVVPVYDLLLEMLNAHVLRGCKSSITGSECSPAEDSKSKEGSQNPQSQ

For `O=P(c1ccccc1)(c1ccccc1)c1ccc(O)cc1`, the logP in the series “physchem [1]” was 3.22. Also, the 50% inhibitory concentration (IC50) entry against Estrogen receptor beta [2] and against Estrogen receptor [3] was “Not Active” each time. Further, the pKa in “physchem [4]” worked out at 8.51. At Estrogen receptor [5], the EC50 result is “Not Active”.

The compound `CP(=O)(c1ccccc1)c1ccc(O)cc1` (stereo unspecified) had a logP in “physchem [1]” of 1.88. Also, the IC50 result at Estrogen receptor beta [2] and against Estrogen receptor [3] was “Not Active” each time. At Estrogen receptor [6], this compound returned an EC50 of 19 µM. In addition, the Activity on Estrogen receptor beta [7] amounted to 36%. The same compound registered a pKa in “physchem [4]” of 8.63.

For the compound `CP(c1ccccc1)c1ccc(O)cc1` (stereo unspecified), the logP in “physchem [1]” is 3.67. Moreover, the IC50 result against Estrogen receptor beta [2] and against Estrogen receptor [3] was “Not Active” in each case. In addition, the pKa in the series “physchem [4]” was found to be 9.49. Further, the EC50 entry at Estrogen receptor [5] is “Not Active”.

For `C[Si](C)(c1ccccc1)c1ccc(O)cc1`, the logP in the series “physchem [1]” came to 4.8. On Estrogen receptor [6], this compound showed an EC50 greater than 30 µM. Moreover, the Activity at Estrogen receptor beta [7] was determined as 20%. The compound further came in with a pKa in “physchem [4]” of 10.2. Also, the IC50 turned out to be 5 µM against Estrogen receptor beta [8] and 13 µM against Estrogen receptor [9].

With `Oc1ccc(P(=S)(c2ccccc2)c2ccccc2)cc1`, the logP in “physchem [1]” stood at 4.08. For the same compound, in the series “physchem [4]”, the pKa was 8.6. Further, the IC50 at Estrogen receptor beta [8] turned out to be 13 µM; on Estrogen receptor [9], 20 µM. Moreover, the concentration for a half-maximal effect (EC50) result on Estrogen receptor [5] is on record as “Not Active”.

For the compound `Oc1ccc(P(c2ccccc2)c2ccccc2)cc1`, in “physchem [1]”, the logP amounted to 5.06. Besides, the IC50 entry against Estrogen receptor beta [2] and on Estrogen receptor [3] was “Not Active” in each case. Moreover, the pKa in the series “physchem [4]” came to 9.48. The half-maximal effective concentration (EC50) result at Estrogen receptor [5] was “Not Active”.

For the compound `CP(=[Se])(c1ccccc1)c1ccc(O)cc1` (stereo unspecified), the logP in “physchem [1]” stood at 3.27. On Estrogen receptor beta [7], the Activity was 24%. Further, the IC50 result against Estrogen receptor [3] is recorded as “Not Active”. The compound further displayed a pKa in “physchem [4]” of 8.64. For the same compound, the inhibition at Estrogen receptor beta [10] turned out to be 30%. Also, the concentration for a half-maximal effect (EC50) result on Estrogen receptor [5] is on record as “Not Active”.

`CC(C)(c1ccccc1)c1ccc(O)cc1` gave a logP in “physchem [1]” of 4.2. Further, the EC50 on Estrogen receptor [6] amounted to 4.4 µM. In addition, the Activity at Estrogen receptor beta [7] was 38%. In addition, the pKa in “physchem [4]” was 10.6. The IC50 against Estrogen receptor beta [8] amounted to 13 µM; against Estrogen receptor [9], 24 µM.

`CP(=S)(c1ccccc1)c1ccc(O)cc1` (stereo unspecified): the logP in “physchem [1]” amounted to 2.69. The IC50 entry on Estrogen receptor beta [2] and at Estrogen receptor [3] was “Not Active” each time. Besides, the Activity (in [11]; on Estrogen receptor beta [7]) was 24% in each case. Also, the pKa in “physchem [4]” worked out at 8.65.

`B.Oc1ccc(P(c2ccccc2)c2ccccc2)cc1` showed a logP in “physchem [1]” of 4.96. Besides, the pKa in “physchem [4]” was 8.81. Besides, the IC50 worked out at 2 µM on Estrogen receptor beta [8] and 12 µM against Estrogen receptor [9]. At Estrogen receptor [5], the concentration for a half-maximal effect (EC50) entry is reported as “Not Active”.

On to `B.CP(c1ccccc1)c1ccc(O)cc1` (stereo unspecified) [listing 1 of 2 here], for which the logP in the series “physchem [1]” was determined as 3.38. The pKa in “physchem [4]” was 8.83. Moreover, the IC50 came out at 2.5 µM on Estrogen receptor beta [8] and 9.8 µM on Estrogen receptor [9]. Further, the EC50 result on Estrogen receptor [5] is “Not Active”.

With `B.CP(c1ccccc1)c1ccc(O)cc1` (stereo unspecified) [listing 2 of 2 here], on Estrogen receptor beta [7], the Activity is 16%.
